In one experiment the test system is P. aeruginosa strain PAK. Nature of the experiment: Bacterial toxicity (growth) assay, OD600. The format is cell-based, Pseudomonas aeruginosa. Particulars: 200, 100, 50 and 25 µM; OD600 for 8 h. As for the experimental part:
Overnight culture of the P. aeruginosa strain PAK was diluted in LB (Luria Broth) to an OD600 of 0.2. The bacteria were added into microtiter plates, and 25, 50, 100, and 200 µM of the potential binders were added in triplicates to the bacteria with a final concentration of 1% DMSO. […] Wells with 1% DMSO without substance were used as positive controls.

For experiment [1], the target named is T1, PcrV (Pseudomonas aeruginosa, UniProt G3XD49). Kind of experiment: SPR dose-response binding to immobilized PcrV (equilibrium analysis).
The target in experiment [2] is T1, PcrV. Kind of experiment: 1H NMR relaxation-edited binding experiment. Particulars: compound 100 µM, PcrV 10 µM. As for the experimental part: A solution containing 100 µM of the small molecule was prepared from 20 mM stock solution of the tested compound in DMSO and diluted in PBS (pH 7.4) containing trimethylsilyl propanoic acid (TMSP) as an internal standard. This solution was then split into halves and used for preparation of the test and the reference samples as follows: the test sample was prepared by adding 24 µL of 0.211 mM PcrV protein stock solution, resulting in a final protein concentration of 10 µM, whereas the reference sample was prepared by adding the corresponding volume of PBS buffer only before being transferred to 5-mm NMR tubes. The relaxation-edited experiments shown in Figure 3D were recorded on Bruker 600 MHz, and data were acquired at 298 K. Data from 256 scans were accumulated, and a Carr-Purcell-Meiboom-Gill (cpmg) spin-lock of 200 ms was used. Excitation sculpture was applied for water suppression.
To confirm the binding data obtained from the SPR, a secondary qualitative label-free binding experiment based on ^1H-NMR was performed.

[3] abbreviates: KD ± standard error of KD (Table S1), single experiment, standard error from ProteOn Manager software.
The mark [4] stands for this setting: SPR KD, equilibrium analysis, mean ± SD of three or more independent experiments, individual values where n < 3, 25 °C, PBST 5% DMSO.

Each structure is given as a SMILES string. Where “and” joins values, the source holds several entries; their conditions need not be identical. Equal values may be shown once. Some results are limits rather than exact numbers.

T1 sequence (G3XD49 entry or part of it): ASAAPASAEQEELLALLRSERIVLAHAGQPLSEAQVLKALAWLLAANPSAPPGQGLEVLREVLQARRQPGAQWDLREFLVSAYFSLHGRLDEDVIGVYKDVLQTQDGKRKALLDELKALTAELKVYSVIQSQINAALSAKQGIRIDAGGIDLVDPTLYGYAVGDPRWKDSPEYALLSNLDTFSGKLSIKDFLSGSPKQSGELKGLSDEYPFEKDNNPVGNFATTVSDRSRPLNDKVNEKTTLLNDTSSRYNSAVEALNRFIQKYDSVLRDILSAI

On to `Cc1c(Br)ccc(OC[C@@H]2C[C@H]2C(=O)O)c1C` (relative stereo) [Compound 32], for which, in the experiment with P. aeruginosa strain PAK, the “Effect on bacterial growth” value is listed as “without affecting bacterial growth”. The equilibrium dissociation constant (Kd) on PcrV [1] (setting [3]) was 61.1 ± 16.9 µM; on PcrV [1] (setting [4]), ~60 µM and 61 to 63 µM and 61 µM. Also, at PcrV [1] (single experiment), the “Rmax (Table S1)” value was 81.8.

As for `Cc1c(Br)ccc(OCCCC(=O)O)c1C` [Compound H1], the dissociation constant Kd on PcrV [1] (KD (equilibrium analysis, Figure 3B), one representative experiment, binding levels at 45-55 s) is 98.3 µM; at PcrV [1] (setting [4]), < 150 µM and 106 µM. Also, the “Rmax (equilibrium analysis, Figure 3B)” value on PcrV [1] (one representative experiment) turned out to be 71.3 RU. The “1H NMR binding to PcrV (qualitative)” value at PcrV [2] is recorded as “signal reduction”.

For the molecule `Cc1c(Br)ccc(OC[C@@H]2C[C@@H]2C(=O)O)c1C` (relative stereo) [Compound 33], in the experiment on P. aeruginosa strain PAK, the “Effect on bacterial growth” value is “without affecting bacterial growth”. Further, the Kd on PcrV [1] (setting [3]) was 59.5 ± 11.1 µM; at PcrV [1] (setting [4]) it was ~60 µM and 61 to 63 µM and 63 µM. The “Rmax (Table S1)” value on PcrV [1] (single experiment) is given as 76.8.

The values are drawn from paper PMC7824769, “Identification of Small Molecules Blocking the Pseudomonas aeruginosa Type III Secretion System Protein PcrV” (Biomolecules, 2021).
